Measurements taken from ChEMBL document CHEMBL3792297, “Studies on phenothiazines: New microtubule-interacting compounds with phenothiazine A-ring as potent antineoplastic agents” (Bioorg Med Chem, 2016).

Tests used:
[1] = Growth inhibition of human SF295 cells after 48 hrs by SRB assay; assay type: functional; details: SF-295, 48 h
[2] = Growth inhibition of human NCI-ADR-RES cells after 48 hrs by SRB assay; assay type: functional
U-251 = assay: Growth inhibition of human U251 cells after 48 hrs by SRB assay; assay type: functional; details: U-251, 48 h
[3] = Growth inhibition of human SNB75 cells after 48 hrs by SRB assay; assay type: functional; details: SNB-75, 48 h
Malme-3M = assay: Growth inhibition of human MALME-3M cells after 48 hrs by SRB assay; assay type: functional
NCI-H522 = assay: Growth inhibition of human NCI-H522 cells after 48 hrs by SRB assay; assay type: functional; details: NCI-H522, 48 h
[4] = Inhibition of sheep brain tubulin polymerization by DAPI staining-based fluorimetric method; set-up: species or system Ovis aries
[5] = Growth inhibition of human SW620 cells after 48 hrs by SRB assay; assay type: functional; details: SW-620, 48 h
[6] = Growth inhibition of human BT549 cells after 48 hrs by SRB assay; assay type: functional; details: BT-549, 48 h
SK-MEL-5 = assay: Growth inhibition of human SK-MEL-5 cells after 48 hrs by SRB assay; assay type: functional; details: SK-MEL-5, 48 h
MDA-MB-468 = assay: Growth inhibition of human MDA-MB-468 cells after 48 hrs by SRB assay; assay type: functional; details: MDA-MB-468, 48 h
[7] = Growth inhibition of human HCC2998 cells after 48 hrs by SRB assay; assay type: functional; details: HCC 2998, 48 h
[8] = Growth inhibition of human MOLT4 cells after 48 hrs by SRB assay; assay type: functional; details: MOLT-4, 48 h
[9] = Growth inhibition of human SF268 cells after 48 hrs by SRB assay; assay type: functional; details: SF-268, 48 h
786-0 = assay: Growth inhibition of human 786-0 cells after 48 hrs by SRB assay; assay type: functional; details: 786-0, 48 h
A549 = assay: Growth inhibition of human A549 cells after 48 hrs by SRB assay; assay type: functional; details: A549, 48 h
MCF7 = assay: Growth inhibition of human MCF7 cells after 48 hrs by SRB assay; assay type: functional; details: MCF7, 48 h
MDA-MB-435 = assay: Growth inhibition of human MDA-MB-435 cells after 48 hrs by SRB assay; assay type: functional; details: MDA-MB-435, 48 h
A498 = assay: Growth inhibition of human A498 cells after 48 hrs by SRB assay; assay type: functional; details: A498, 48 h
[10] = Growth inhibition of human UACC62 cells after 48 hrs by SRB assay; assay type: functional; details: UACC-62, 48 h
HT-29 = assay: Growth inhibition of human HT-29 cells after 48 hrs by SRB assay; assay type: functional; details: HT-29, 48 h
SR = assay: Growth inhibition of human SR cells after 48 hrs by SRB assay; assay type: functional
[11] = Growth inhibition of human RXF393 cells after 48 hrs by SRB assay; assay type: functional; details: RXF 393, 48 h
[12] = Growth inhibition of human HCT116 cells after 48 hrs by SRB assay; assay type: functional; details: HCT-116, 48 h
[13] = Growth inhibition of human RPMI8226 cells after 48 hrs by SRB assay; assay type: functional; details: RPMI-8226, 48 h
K562 = assay: Growth inhibition of human K562 cells after 48 hrs by SRB assay; assay type: functional; details: K562, 48 h
SN12C = assay: Growth inhibition of human SN12C cells after 48 hrs by SRB assay; assay type: functional
[14] = Growth inhibition of human OVCAR8 cells after 48 hrs by SRB assay; assay type: functional; details: OVCAR-8, 48 h

| Structure (SMILES) | GI50 [1] | GI50 [2] | GI50 (U-251) | GI50 [3] | GI50 (Malme-3M) | GI50 (NCI-H522) | GI50 [5] | GI50 [6] | GI50 (SK-MEL-5) | GI50 (MDA-MB-468) | GI50 [7] | GI50 [8] | GI50 [9] | GI50 (A549) | GI50 (MCF7) | GI50 (MDA-MB-435) | GI50 (A498) | GI50 [10] | GI50 (HT-29) | GI50 (SR) | also measured |
| --- | --- | --- | --- | --- | --- | --- | --- | --- | --- | --- | --- | --- | --- | --- | --- | --- | --- | --- | --- | --- | --- |
| COc1ccc(C(=O)N2c3ccccc3Sc3ccccc32)c(F)c1 | 395 nM | 517 nM | 615 nM | 288 nM | 16200 nM | 403 nM | 458 nM | 676 nM | 759 nM | 413 nM | 2380 nM | 715 nM | 10100 nM | 1190 nM | 405 nM | 177 nM | 330 nM | 382 nM | 380 nM | 380 nM | IC50 [4]: 22500 nM; GI50 (786-0): 675 nM; GI50 [11]: 764 nM; GI50 [12]: 393 nM; GI50 [13]: 921 nM; GI50 (K562): 442 nM; GI50 (SN12C): 1940 nM; GI50 [14]: 2200 nM |
| COc1ccc(C(=O)N2c3ccccc3Sc3ccccc32)c(C(F)(F)F)c1 | 372 nM | 370 nM | 500 nM | 264 nM | 25800 nM | 320 nM | 425 nM | 892 nM | 692 nM | 364 nM | 467 nM | 406 nM | 3040 nM | 515 nM | 411 nM | 176 nM | 282 nM | 438 nM | 362 nM | 312 nM | IC50 [4]: 11900 nM; GI50 [11]: 362 nM; GI50 [12]: 505 nM; GI50 [13]: 595 nM; GI50 (K562): 349 nM; GI50 (SN12C): 1300 nM; GI50 [14]: 592 nM |
| COc1ccc(C(=O)N2c3ccccc3Sc3ccccc32)cc1F | 251 nM | 200 nM | 353 nM | 270 nM | 365 nM | 114 nM | 282 nM | 439 nM | 443 nM | 231 nM | 470 nM | 323 nM | 799 nM | 344 nM | 346 nM | 36 nM | 219 nM | 128 nM | 283 nM | 162 nM | IC50 [4]: 11800 nM; GI50 (786-0): 609 nM; GI50 [11]: 211 nM; GI50 [12]: 358 nM; GI50 [13]: 336 nM; GI50 (K562): 110 nM; GI50 (SN12C): 525 nM; GI50 [14]: 420 nM |
| COc1ccc(C(=O)N2c3ccccc3Sc3ccccc32)c(OC)c1 | 484 nM | 400 nM | 615 nM | 209 nM | 416 nM | 343 nM | 412 nM | 659 nM | 408 nM | 327 nM | 1490 nM | 447 nM | 853 nM | 785 nM | 450 nM | 212 nM | 307 nM | 321 nM | 385 nM | 562 nM | GI50 (786-0): 480 nM; GI50 [11]: 413 nM; GI50 [12]: 452 nM; GI50 [13]: 523 nM; GI50 (K562): 381 nM; GI50 (SN12C): 586 nM; GI50 [14]: 749 nM |
| O=C(c1ccc2c(c1)Sc1ccccc1N2)c1c[nH]c2ccccc12 | 314 nM | 317 nM | 413 nM | 249 nM | 532 nM | 338 nM | 293 nM | 366 nM | 452 nM | 301 nM | 876 nM | 642 nM | 798 nM | 592 nM | 312 nM | 98 nM | 172 nM | 356 nM | 358 nM | 173 nM | IC50 [4]: 38900 nM; GI50 (786-0): 672 nM; GI50 [11]: 510 nM; GI50 [12]: 378 nM; GI50 [13]: 428 nM; GI50 (K562): 310 nM; GI50 (SN12C): 708 nM; GI50 [14]: 556 nM |
